According to patent US20220387630A1, “METHOD FOR SCREENING ANTICANCER AGENT AND COMBINATION DRUG OF KINASE INHIBITORS FOR TREATMENT OF PANCREATIC CANCER” (National University Corporation Hokkaido University, priority 2020, published 2022):

Experiments:
4-hit flies (non-GFP) = assay: Efficacy of kinase inhibitors on 4-hit fly survival rate (drug food); type: in vivo, Drosophila; conditions: used alone; 1 M Trametinib in food; reared at 25° C. for 13 days
Protocol: Trametinib (MEK inhibitor), Adavosertib (referred also to as MK-1775, WEE1 inhibitor), AD80 (FRK inhibitor), Y-27632 (ROCK inhibitor), Alisertib (AURKA inhibitor, the above all purchased from MedChem Express), BI-831266 (AURKB inhibitor, obtained from Boehringer Ingelheim) was each dissolved in DMSO (SIGMA) and stored at −20° C.
Agar (Wako), brewers' yeast (MP Bio), yeast extract (Sigma Aldrich), bacto casitone (BD), sucrose (Wako), glucose (Wako), MgCl2 (Wako) CaCl2 (Wako), Propionic acid (Wako), and Mold inhibitor (10% Methyl-4-hydroxy Benzoate in 95% Ethanol; Wako) were dissolved in ultrapure water to prepare a standard food. While kept at 50° C., the kinase inhibitor (Trametinib alone or a combination of Trametinib and another kinase inhibitor) dissolved in DMSO was added for mixing. The resulting solution was cooled to obtain a drug food. The final concentrations of the compounds in the food were […] for Trametinib, 100 μM for Adavosertib, 50 μM for AD80, 10 μM for Y-27632, and 100 μM for BI-831266.
The UAS-Ras^G12D, UAS-p53^shRNA, UAS-CycE, UAS-Med^shRNA fly produced in Example 1 was mated with a Ser-gal4 fly (Bloomington Drosophila Stock Center). […] The eggs were reared at 25° C. for 13 days, and survival rate of 4-hit flies (non-GFP) reared on each food was calculated by dividing the number of eclosed pupae by the total number of pupae.

MIA PaCa-2 cells = assay: MTS cell viability assay in human pancreatic cancer cells; type: cell-based; conditions: in combination with Trametinib, 72 hours
Protocol: Example 4 Evaluation of efficacy of kinase inhibitor with use of human pancreatic cancer cells Human pancreatic cancer cell line (MIA PaCa-2) was purchased from National Institute of RIKEN BioResource Research Center, and cultured in Dulbecco's Modified Eagle's Medium (Nacalai tesque) supplemented with 10% fetal bovine serum (Gibco) and 1% penicillin-streptomycin (Nacalai tesque) at 37° C. in the presence of 5% CO2.
Trametinib (DMSO only, 1 μM, 300 μM), Adavosertib (300 μM, 1 mM), AD80 (30 μM, 3 mM), Alisertib (30 μM, 1 mM) and BI-831266 (3 μM, 3 mM) was each prepared and diluted to 100-fold in the medium to produce a drug solution.
MIA PaCa-2 cells were seeded into a 96-well plate at 1000 cells/well (in 100 μL medium). After culturing for one day, 10 μL of the drug solution of Trametinib alone or Trametinib combined with another kinase inhibitor was added to the cells in each well on the 96-well plate (0.2% final concentration of DMSO). Each combination was tested in five wells. After the addition of the drug solution, the cells were cultured at 37° C. for 72 hours in the presence of 5% CO2, and then the cell viability was measured using MTS assay (CellTiter 96 (registered trademark), Promega). The viability is expressed as a ratio to that of a control (solvent only).

Row | Structure (SMILES) | increase of survival rate of 4-hit flies (non-GFP) (4-hit flies (non-GFP)) [%] | cell viability compared to that of Trametinib used alone (MIA PaCa-2 cells)
1 | CC(=O)Nc1cccc(-n2c(=O)n(C3CC3)c(=O)c3c(Nc4ccc(I)cc4F)n(C)c(=O)c(C)c32)c1 [Trametinib] | 20 | 
2 | C=CCn1c(=O)c2cnc(Nc3ccc(N4CCN(C)CC4)cc3)nc2n1-c1cccc(C(C)(C)O)n1 [Adavosertib] |  | greatly reduced the cell viability
3 | COc1cc(Nc2ncc3c(n2)-c2ccc(Cl)cc2C(c2c(F)cccc2OC)=NC3)ccc1C(=O)O [Alisertib] |  | greatly reduced the cell viability
4 | CC(C)n1nc(-c2ccc(NC(=O)Nc3cc(C(F)(F)F)ccc3F)cc2)c2c(N)ncnc21 [AD80] |  | greatly reduced the cell viability
